T1: outer-arm dynein intermediate chain IC3 (T. thermophila, UniProt Q23FU1 1-670)
T1 construct: outer-arm dynein intermediate chain 3, T. thermophila, native subunit; source: purified from T. thermophila cilia as a subunit of native OAD (high salt extraction, sucrose gradient, ion exchange)
T1 sequence (looked up): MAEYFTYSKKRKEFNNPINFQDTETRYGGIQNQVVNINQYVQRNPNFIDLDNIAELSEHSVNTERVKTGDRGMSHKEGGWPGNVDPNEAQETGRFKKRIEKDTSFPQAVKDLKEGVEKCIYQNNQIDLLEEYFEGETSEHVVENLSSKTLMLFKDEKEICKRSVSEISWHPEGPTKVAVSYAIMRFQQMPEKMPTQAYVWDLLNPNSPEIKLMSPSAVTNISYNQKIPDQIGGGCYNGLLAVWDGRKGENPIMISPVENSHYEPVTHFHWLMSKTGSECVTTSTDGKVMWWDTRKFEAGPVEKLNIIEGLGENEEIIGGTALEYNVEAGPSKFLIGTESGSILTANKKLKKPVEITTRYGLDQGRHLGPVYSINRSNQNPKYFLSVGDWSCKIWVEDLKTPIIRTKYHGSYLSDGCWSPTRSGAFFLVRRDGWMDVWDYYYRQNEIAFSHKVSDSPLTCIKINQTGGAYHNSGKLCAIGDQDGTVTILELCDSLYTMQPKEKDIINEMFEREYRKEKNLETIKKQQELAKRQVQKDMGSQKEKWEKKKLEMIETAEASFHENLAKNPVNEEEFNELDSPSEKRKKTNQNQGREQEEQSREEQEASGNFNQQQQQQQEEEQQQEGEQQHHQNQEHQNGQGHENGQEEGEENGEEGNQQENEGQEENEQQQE

B1: Tctex-b (LC2A) (natural protein, T. thermophila, UniProt C0HME8 1-132, looked up)
chain: MKGTYLYLNIYKRKREASLITLNYIKNRFYPSKIQKIIKELFEDRLKGVEYDPNNANQLSERLVLELREKIKRGKVPRYKIGVQVVFGEIKGQGLRIASKCLWDVQNDNYASYTYTSEKVYCTGIVFGCYFE
notes: light chain LC2A, the best hit for the Tctex-b position, T. thermophila; source: purified from T. thermophila cilia as a subunit of native OAD (high salt extraction, sucrose gradient, ion exchange)
B2: outer-arm dynein intermediate chain IC2 (natural protein, T. thermophila, UniProt I7M008 1-667, looked up)
chain: MPPKQTKVVASRKTVMPISRAGRAQIRRKDSNTQNNMNDQGMEDEEIDQQREGMKNQYEQLTAQELNEDMPSKMLEPKNPQAPKNITVYDYYTRKFKTDELVDQMIVHFSMDGDYIWKESNEYKTQEEIRDTKKALIKEAMRKQESEEPGANHDEEAIKQTLRNKFNYNTRECQTINPSIRERGVSTEPPPSDTICGNITQWEIFDAYYAEIMKDHQIENKKKKEVDQDKKQDQSMYSTSFKRCCKIMERMVVQNDQEDKYHDYRYYWSQGDNLEAGKNEGHLLPIWRFSNEKQRKKNVTSICWNPLYPDLFAVSLGSYDFTKQRMGLICLYSLKNTTHPEYAFNCEAGVMCLDFHPKSAALLAVGLYDGTVLVYDIRNKHKKPIYQSTVRNQKHTDPVWQVKWNPDTSKNYNFYSISSDGRVMNWILMKNKLEPEEVILLRLVGKNEEESTLIGLACGLCFDFNKFEPHIFLVGTEEGKIHKCSRAYSGQYQETYNGHLLAVYKVKWNNFHPRTFISASADWTVRIWDSKYTSQIICFDLSMMVVDAVWAPYSSTVFACATMDKVQVYDLNVDKLNKLAEQKIVKQPKLTNLSFNYKDPILLVGDSHGGVTLVKLSPNLCKSGPEIKQTEDKKAMEEFKNVKIEDYEREKMENLLAVVSKWEREDA
notes: outer-arm dynein intermediate chain 2, T. thermophila, native subunit; source: purified from T. thermophila cilia as a subunit of native OAD (high salt extraction, sucrose gradient, ion exchange)

Assays:
[1] = target: T2, γ-HC (γ-motor domain) of T. thermophila OAD (Tetrahymena thermophila, UniProt I7M6H4); assay: cryo-EM structure of OAD-MTD array; format: binding; details: Mg2+, no nucleotide added (apo state, co-purified)
T2 construct: gene TTHERM_00486600; from cilia
T2 sequence (I7M6H4 1-4168): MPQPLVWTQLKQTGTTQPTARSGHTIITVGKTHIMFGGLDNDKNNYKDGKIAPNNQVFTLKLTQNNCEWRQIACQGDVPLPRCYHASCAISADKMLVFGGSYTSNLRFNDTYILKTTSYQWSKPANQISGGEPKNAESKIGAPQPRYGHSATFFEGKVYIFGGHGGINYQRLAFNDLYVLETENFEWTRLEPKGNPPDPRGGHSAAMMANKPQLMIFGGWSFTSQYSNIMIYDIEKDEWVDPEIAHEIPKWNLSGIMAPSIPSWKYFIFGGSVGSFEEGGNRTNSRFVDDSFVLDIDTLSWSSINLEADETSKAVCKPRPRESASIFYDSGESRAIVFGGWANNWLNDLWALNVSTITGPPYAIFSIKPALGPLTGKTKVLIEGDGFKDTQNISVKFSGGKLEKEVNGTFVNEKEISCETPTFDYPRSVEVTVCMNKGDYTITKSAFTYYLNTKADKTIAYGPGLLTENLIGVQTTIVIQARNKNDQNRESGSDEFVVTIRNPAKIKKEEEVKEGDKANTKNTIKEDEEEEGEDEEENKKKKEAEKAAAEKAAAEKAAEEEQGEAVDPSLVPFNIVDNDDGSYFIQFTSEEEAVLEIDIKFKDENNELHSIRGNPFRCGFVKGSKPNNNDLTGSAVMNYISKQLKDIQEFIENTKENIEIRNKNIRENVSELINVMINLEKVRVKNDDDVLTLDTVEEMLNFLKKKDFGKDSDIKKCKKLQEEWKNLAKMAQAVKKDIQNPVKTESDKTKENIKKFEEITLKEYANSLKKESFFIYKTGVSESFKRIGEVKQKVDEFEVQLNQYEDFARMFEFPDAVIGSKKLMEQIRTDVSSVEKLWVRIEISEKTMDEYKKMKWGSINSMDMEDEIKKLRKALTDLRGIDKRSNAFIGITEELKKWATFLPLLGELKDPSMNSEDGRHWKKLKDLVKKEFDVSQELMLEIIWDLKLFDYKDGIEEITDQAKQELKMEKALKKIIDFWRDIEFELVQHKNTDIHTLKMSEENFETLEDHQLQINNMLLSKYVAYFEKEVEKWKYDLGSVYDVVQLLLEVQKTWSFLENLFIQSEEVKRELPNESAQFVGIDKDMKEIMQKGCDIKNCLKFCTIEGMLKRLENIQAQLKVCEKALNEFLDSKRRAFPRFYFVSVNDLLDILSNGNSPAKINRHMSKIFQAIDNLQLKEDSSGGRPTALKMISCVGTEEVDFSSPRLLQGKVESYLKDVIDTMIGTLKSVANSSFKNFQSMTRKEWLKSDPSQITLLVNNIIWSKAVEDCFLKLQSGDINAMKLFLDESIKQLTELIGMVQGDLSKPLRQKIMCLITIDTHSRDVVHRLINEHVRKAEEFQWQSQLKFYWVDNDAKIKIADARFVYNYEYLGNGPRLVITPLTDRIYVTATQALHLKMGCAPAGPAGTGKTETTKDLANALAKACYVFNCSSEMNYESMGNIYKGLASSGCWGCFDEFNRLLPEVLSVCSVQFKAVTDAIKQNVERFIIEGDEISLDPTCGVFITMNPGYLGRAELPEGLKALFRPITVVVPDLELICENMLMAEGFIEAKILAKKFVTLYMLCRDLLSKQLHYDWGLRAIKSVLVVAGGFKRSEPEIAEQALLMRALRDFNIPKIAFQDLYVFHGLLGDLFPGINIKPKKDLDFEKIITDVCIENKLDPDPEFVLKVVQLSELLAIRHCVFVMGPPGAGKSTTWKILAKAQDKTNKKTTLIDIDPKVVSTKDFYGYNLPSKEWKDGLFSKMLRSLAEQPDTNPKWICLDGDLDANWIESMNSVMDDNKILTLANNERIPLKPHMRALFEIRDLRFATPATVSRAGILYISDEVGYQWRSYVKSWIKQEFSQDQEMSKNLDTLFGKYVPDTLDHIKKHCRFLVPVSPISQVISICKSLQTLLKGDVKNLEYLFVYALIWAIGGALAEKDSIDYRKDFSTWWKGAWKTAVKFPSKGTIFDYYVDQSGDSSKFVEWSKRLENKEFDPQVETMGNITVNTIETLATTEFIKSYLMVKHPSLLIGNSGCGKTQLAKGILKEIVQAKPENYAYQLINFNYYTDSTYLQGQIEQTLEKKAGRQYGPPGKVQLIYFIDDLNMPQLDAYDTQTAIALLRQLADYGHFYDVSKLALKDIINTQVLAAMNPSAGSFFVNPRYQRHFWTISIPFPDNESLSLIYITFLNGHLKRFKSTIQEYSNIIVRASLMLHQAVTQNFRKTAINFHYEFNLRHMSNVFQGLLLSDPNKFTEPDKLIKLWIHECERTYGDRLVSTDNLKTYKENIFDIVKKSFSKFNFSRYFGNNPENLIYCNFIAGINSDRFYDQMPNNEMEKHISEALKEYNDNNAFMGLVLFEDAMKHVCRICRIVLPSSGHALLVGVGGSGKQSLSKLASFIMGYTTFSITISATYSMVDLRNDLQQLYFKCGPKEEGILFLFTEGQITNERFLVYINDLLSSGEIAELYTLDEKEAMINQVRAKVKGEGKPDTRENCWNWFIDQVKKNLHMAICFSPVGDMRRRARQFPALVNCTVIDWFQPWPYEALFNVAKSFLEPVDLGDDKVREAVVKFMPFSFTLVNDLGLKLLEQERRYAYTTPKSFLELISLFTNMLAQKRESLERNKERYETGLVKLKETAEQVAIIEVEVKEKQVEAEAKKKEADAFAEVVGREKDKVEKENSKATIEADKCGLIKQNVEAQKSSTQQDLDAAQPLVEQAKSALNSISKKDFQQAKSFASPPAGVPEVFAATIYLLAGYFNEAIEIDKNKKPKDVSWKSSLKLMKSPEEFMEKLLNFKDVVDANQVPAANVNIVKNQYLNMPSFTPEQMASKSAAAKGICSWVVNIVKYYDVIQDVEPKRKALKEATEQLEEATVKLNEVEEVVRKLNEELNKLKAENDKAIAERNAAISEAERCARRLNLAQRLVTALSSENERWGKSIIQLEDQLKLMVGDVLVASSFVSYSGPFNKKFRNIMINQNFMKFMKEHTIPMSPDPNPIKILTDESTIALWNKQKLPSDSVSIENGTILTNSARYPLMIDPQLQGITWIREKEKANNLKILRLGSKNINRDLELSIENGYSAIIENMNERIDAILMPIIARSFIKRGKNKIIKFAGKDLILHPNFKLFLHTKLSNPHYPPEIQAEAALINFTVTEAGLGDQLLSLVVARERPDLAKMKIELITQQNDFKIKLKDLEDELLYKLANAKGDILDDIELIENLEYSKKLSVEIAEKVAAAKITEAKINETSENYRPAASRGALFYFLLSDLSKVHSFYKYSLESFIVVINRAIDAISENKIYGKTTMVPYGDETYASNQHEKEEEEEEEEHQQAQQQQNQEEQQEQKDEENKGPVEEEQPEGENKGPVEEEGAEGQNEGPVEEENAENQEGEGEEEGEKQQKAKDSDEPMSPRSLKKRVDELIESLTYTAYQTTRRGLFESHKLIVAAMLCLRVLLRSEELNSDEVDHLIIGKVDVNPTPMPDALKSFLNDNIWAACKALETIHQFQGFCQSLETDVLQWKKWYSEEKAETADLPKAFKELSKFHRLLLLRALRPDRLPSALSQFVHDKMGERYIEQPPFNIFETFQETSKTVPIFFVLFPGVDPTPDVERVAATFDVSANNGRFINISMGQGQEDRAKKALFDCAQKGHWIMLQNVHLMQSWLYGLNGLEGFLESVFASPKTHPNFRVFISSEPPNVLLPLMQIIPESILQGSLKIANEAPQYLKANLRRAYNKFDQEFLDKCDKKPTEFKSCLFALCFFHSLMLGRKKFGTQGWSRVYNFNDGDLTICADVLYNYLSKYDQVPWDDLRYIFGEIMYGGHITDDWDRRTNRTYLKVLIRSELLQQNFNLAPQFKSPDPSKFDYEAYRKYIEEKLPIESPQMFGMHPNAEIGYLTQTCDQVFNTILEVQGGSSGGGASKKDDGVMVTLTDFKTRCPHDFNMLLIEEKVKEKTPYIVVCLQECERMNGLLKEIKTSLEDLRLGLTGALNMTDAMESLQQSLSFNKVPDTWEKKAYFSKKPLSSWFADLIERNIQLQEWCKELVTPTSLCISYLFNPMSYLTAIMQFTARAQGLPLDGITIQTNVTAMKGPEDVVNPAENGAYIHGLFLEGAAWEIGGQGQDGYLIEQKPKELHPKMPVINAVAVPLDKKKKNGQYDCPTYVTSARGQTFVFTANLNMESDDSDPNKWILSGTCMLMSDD

[2] = target: T3, β-HC (β-motor domain) of T. thermophila OAD (Tetrahymena thermophila, UniProt I7M9J2); assay: cryo-EM structure of OAD-MTD array; format: binding; details: Mg2+, no nucleotide added (apo state, co-purified)
T3 construct: gene TTHERM_00499300; from cilia

[3] = target: T4, α-HC (α-motor domain) of T. thermophila OAD (Tetrahymena thermophila, UniProt Q22A67); assay: cryo-EM structure of OAD-MTD array; format: binding; details: Mg2+, no nucleotide added (apo state, co-purified)
T4 construct: gene TTHERM_01276420; from cilia

outer-arm dynein (OAD) [4] = target: T5, outer-arm dynein (OAD) (Tetrahymena thermophila, UniProt I7M6H4+I7M9J2+Q22A67); assay: negative-stain EM of OAD coverage on MTD; microtubule gliding assay; format: biochemical; details: 1 mM ATP; 45 nM OAD; 20 mM HEPES pH 7.4, 100 mM KCl, 5 mM MgSO4, 1 mM DTT
T5 construct: gene TTHERM_01276420; native OAD, high-salt extract of axonemes, sucrose gradient and ion exchange; not cross-linked; with Dynein intermediate chain 2; Dynein intermediate chain 3; Dynein light chain LC7-a (LC7A homolog); Dynein light chain LC7B; Dynein light chain LC10; Dynein light chain DLC82; Dynein light chain LC8E; Dynein light chain LC8-2b; Dynein light chain LC8-3a; Dynein light chain LC8-3b; Dynein light chain Tctex-a; Dynein light chain LC2A; Dynein light chain LC4A; Dynein light chain LC3BL; Dynein light chain 1

outer-arm dynein (OAD) [5] = target: T5, outer-arm dynein (OAD); assay: negative-stain EM count of OAD array length / coverage on MTD; format: biochemical; details: 10 to 1,000 μM ATPγS; slowly hydrolysed; 45 nM OAD; 20 mM HEPES pH 7.4, 100 mM KCl, 5 mM MgSO4, 1 mM DTT
[6] = target: B2; assay: cryo-EM structure; freshly purified native OAD (not cross-linked) reconstituted on MTD in 20 mM HEPES pH 7.4, 100 mM KCl, 5 mM MgSO4, 1 mM DTT, on ice 45 min; apo state, no docking complex; two classes MTBS-1 and MTBS-2; MTD lattice refined from the same data; details: both partners purified
[7] = target: T1, outer-arm dynein intermediate chain IC3; assay: as above; details: both partners purified
[8] = sites AAA3 and AAA4 (same state as β-HC)

With `Nc1ncnc2c1ncn2[C@@H]1O[C@H](COP(=O)(O)OP(=O)(O)O)[C@@H](O)[C@H]1O` [ADP] the “cryo-EM structure of OAD-MTD array” value [1, 8] was “Other motor domains have the same nucleotide binding states”, the “cryo-EM structure of OAD-MTD array” value ([2]; sites AAA3 and AAA4) was “ATP in β-AAA2 and ADP in β-AAA3/AAA4 were unambiguously identified from the density” and the “cryo-EM structure of OAD-MTD array” value [3, 8] was “Other motor domains have the same nucleotide binding states”.

With `Nc1ncnc2c1ncn2[C@@H]1O[C@H](COP(=O)(O)OP(=O)(O)OP(=O)(O)O)[C@@H](O)[C@H]1O` [ATP] the “negative-stain EM of OAD coverage on MTD; microtubule gliding assay” value (outer-arm dynein (OAD) [4]) was “fell off the MTDs in the presence of ATP, ADP·Vi or ATPγS”, the “cryo-EM structure of OAD-MTD array” value ([1]; site AAA2 (same state as β-HC)) was “Other motor domains have the same nucleotide binding states” and the “cryo-EM structure of OAD-MTD array” value ([2]; site AAA2) was “ATP in β-AAA2 and ADP in β-AAA3/AAA4 were unambiguously identified from the density”. The “cryo-EM structure of OAD-MTD array” value ([3]; site AAA2 (same state as β-HC)) was “Other motor domains have the same nucleotide binding states”.

For `Nc1ncnc2c1ncn2[C@@H]1O[C@H](COP(=O)(O)OP(=O)(O)OP(O)(O)=S)[C@@H](O)[C@H]1O` [ATPγS], the “negative-stain EM count of OAD array length / coverage on MTD” value (outer-arm dynein (OAD) [5]) was “Using a titration of ATPγS, we were able to gradually shorten OAD arrays in vitro”.

B1: binds [6]; binds [7].

B2: binds [7].

Source: article PMC8500839, “Structures of outer-arm dynein array on microtubule doublet reveal a motor coordination mechanism” (Nature Structural & Molecular Biology, 2021)
